Experimental data as given in article PMC8762250, “Identification of Novel Chemical Scaffolds that Inhibit the Growth of Mycobacterium tuberculosis in Macrophages” (Frontiers in Pharmacology, 2022).
Where “and” joins values, the source holds several entries; their conditions need not be identical. Equal values may be shown once. Read-outs that look alike come from different tables or passages of the source. Marks after values point to notes of the source that are not given here.

How the values were obtained:
RAW264.7 cells = assay: Macrophage viability in the same high content assay; conditions: infected RAW264.7 macrophages; for Intracellular activity Cytotoxicity TC50: 72 h; for Intracellular RAW TC50: SAR tables 4-8
M. tuberculosis [1] = assay: High content assay of intracellular M. tuberculosis growth in infected RAW264.7 macrophages; type: cell-based, Mycobacterium tuberculosis H37Rv-LP; conditions: Mycobacterium tuberculosis, RAW264.7, 72 h, M. tuberculosis in RAW264.7 cells, MOI 1, 72 h; read-out: Intracellular activity Anti-tubercular activity IC50
Procedure: Compounds were obtained in 384-well plates as 10 mM DMSO stock solutions and tested as described ([Manning et al., 2017]). Briefly, assay plates were prepared in clear bottom, black 384-well plates with 30 μl cRPMI and 0.6 μl compound in columns 3–22 (final concentration of 10 μM compound, 1% DMSO). […] INH and STA were also included in dose response on each plate. RAW264.7 cells were infected with M. tuberculosis DREAM8 as described ([Manning et al., 2017]) at an MOI of 1 for 24 h and extracellular bacteria removed by washing. Cells were recovered using Accumax, harvested, washed and resuspended in serum-free RPMI; 30 μl of infected cells were dispensed into each well at 3,300 cells/well. Plates were incubated for 72 h, 10 μl of 5X SYBR Green I was added and plates were imaged with an ImageXpress Micro High Content Screening System (Molecular Devices) using a ×4 objective and FITC and Texas Red channels. MetaXpress was used to analyze images. The integrated intensity of M. tuberculosis or macrophages was calculated for each well. Growth inhibition was calculated for each test well by normalizing to the average integrated intensity of the DMSO control wells. IC50 was calculated as the compound concentration required to reduce bacterial growth by 50%. TC50 was calculated as the compound concentration required to reduce macrophage viability by 50%.

M. tuberculosis [2] = assay: Minimum inhibitory concentration in liquid medium (axenic culture); type: cell-based, Mycobacterium tuberculosis; conditions: Mycobacterium tuberculosis; for IC50: read-out: Anti-tubercular activity in axenic culture IC50
HepG2 cells = assay: HepG2 cytotoxicity (CellTiter-Glo, 72 h); type: cell-based, human; conditions: for HepG2 cytotoxicity TC50 Galactose / HepG2 cytotoxicity TC50 Glucose: 72 h
Procedure: (§1) Cytotoxicity against HepG2 cells was measured after 72 h. Cells were seeded in 384-well plates at 1,800 cells per well. Compounds were added as a 10-point three-fold serial dilution after 24 h (final assay concentration of 1% DMSO). CellTiter-Glo® reagent (Promega) was added and relative luminescence units (RLU) measured. Data were normalized to the DMSO controls. Curves were fitted using the Levenberg–Marquardt algorithm; TC50 was calculated as the compound concentration required to reduce cell viability by 50%.
(§2) We further evaluated cytotoxicity using the HepG2 cell line cultured with either glucose or galactose in the medium (Table 2). HepG2 cells cultured with galactose rely on mitochondrial oxidative phosphorylation rather than glycolysis which increases their susceptibility to mitochondrial toxicants allowing us to identify compounds with mitochondrial toxicity ([Kamalian et al., 2015]).

[3] = HepG2 cytotoxicity (CellTiter-Glo, 72 h); type: cell-based, human; conditions: human
Procedure: as §1, §2

[4] = 120 h, extracellular, 5 days, OD590
[5] = 120 h, extracellular, 5 days, OD590, read-out: Anti-tubercular activity in axenic culture IC90
[6] = axenic culture, SAR tables 4-8, read-out: Extracellular IC90
[7] = HepG2 cytotoxicity IC50 Galactose
[8] = HepG2 cytotoxicity IC50 Glucose

SMILES | Intracellular activity Cytotoxicity TC50 (RAW264.7 cells) | IC50 (M. tuberculosis [1]) | IC50 (M. tuberculosis [2]; 120 h) | IC90 (M. tuberculosis [2]; 120 h, read-out: Anti-tubercular activity in axenic culture IC90) | HepG2 cytotoxicity TC50 Galactose (HepG2 cells; galactose medium) | HepG2 cytotoxicity TC50 Glucose (HepG2 cells; glucose medium) | IC50 (M. tuberculosis [2]; [4]) | IC90 (M. tuberculosis [2]; [5]) | HepG2 cytotoxicity TC50 Galactose (HepG2 cells; human) | HepG2 cytotoxicity TC50 Glucose (HepG2 cells; human) | Intracellular RAW TC50 (RAW264.7 cells) | IC90 (M. tuberculosis [2]; [6]) | IC50 at 72 h [3, 7] | IC50 at 72 h [3, 8] | ratio of TC50glu/TC50gal (HepG2 cells; HepG2, glucose vs galactose)
COc1ccc(OCCNC(=O)c2cc([N+](=O)[O-])cc([N+](=O)[O-])c2)cc1 [TPN-0095031] | 40 ± 25 ^e µM | 0.036 ± 0.007 µM | 0.2 ± 0.07 µM | 0.4 ± 0.14 µM | 52 ± 0.47 ^c µM | 57 ± 6.2 ^c µM | – | – | – | – | – | – | – | – | –
Brc1c(-c2ccccc2)nc2ccccn12 [TPN-0095038] | 72 ± 15 ^b µM | 2.5 µM | – | – | – | – | 9.2 ± 1 µM | > 20 µM | >100 ^c µM | >100 ^b µM | – | – | – | – | –
O=c1c(/C=N/Cc2cccnc2)c(NCc2cccnc2)nc2ccccn12 [TPN-0095033] | >100 ^c µM | 3.4 ± 2.6 µM | – | – | – | – | > 20 µM | > 20 µM | >100 ^c µM | >100 ^c µM | – | – | – | – | –
O=C(COc1ccc(Cl)cc1)Nc1ccc(N2CCCCC2)c(Cl)c1 [TPN-0006209] | 68 ± 0.50 ^b µM | – | – | – | – | – | > 20 µM | > 20 µM | >100 ^b µM | >100 ^b µM | 68 ± 0.5 ^b µM | > 20 µM | > 100 µM | > 100 µM | –
Cc1ccc(NC(=O)CCN2CCN(c3ccc(Cl)cc3)CC2)cc1 [TPN-0095037] | 54 ± 26 ^c µM | 2 ± 0.53 µM | – | – | – | – | > 20 µM | > 20 µM | 56 ± 4 ^b µM | 84 ± 2.5 ^b µM | – | – | – | – | –
Clc1c(-c2ccccc2)nc2ccccn12 [TPN-0095030] | >100 ^b µM | 6.9 ± 1.9 µM | – | – | – | – | > 20 µM | > 20 µM | >100 ^b µM | >100 ^b µM | – | – | – | – | –
Cc1ccc(OCC(=O)Nc2ccc(N3CCCCC3)c(Cl)c2)cc1 [TPN-0006206] | 57 ± 20 ^b µM | – | – | – | – | – | > 20 µM | > 20 µM | >100 ^b µM | >100 ^b µM | 57 ± 20 ^c µM | > 20 µM | > 100 µM | > 100 µM | –
Clc1ccc(Nc2nc(-c3cccs3)cs2)cc1 [TPN-0095025] | 26 ± 7.1 ^c µM | 4.4 ± 1.7 µM | – | – | – | – | > 20 µM | > 20 µM | 28 ± 1.5 ^b µM | 35 ± 1.0 ^a µM | – | – | – | – | –
Cn1nc(C2CC2)cc1C(=O)Nc1ccc(I)cc1 [TPN-0089788] | >100e µM | 2.5 ± 0.57 µM | – | – | – | – | > 20 µM | > 20 µM | 30 ± 12 ^e µM | 52 ± 18 ^e µM | – | – | – | – | –
Fc1ccc(C2CC(c3ccc(Cl)cc3Cl)n3ncnc3N2)cc1 (centres unmarked) [TPN-0095039] | 24 ± 6.1 ^c µM | 2.1 ± 0.74 µM | – | – | – | – | 14 ± 2.1 µM | 18 ± 1.4 µM | 30 ± 3.2 ^d µM | 29 ± 7.7 ^e µM | – | – | – | – | –
COc1ccc(CNC(=O)c2c(C)nc3ccccn23)cc1 [TPN-0095027] | 72 ± 16 ^d µM | 0.1 ± 0.01 µM | – | – | – | – | 0.17 ± 0.02 µM | 0.6 ± 0.2 µM | 22 ± 2.2 ^c µM | 76 ± 12 ^c µM | – | – | – | – | –
O=C(CN1CCC(Cc2ccccc2)CC1)Nc1ccc(Cl)cn1 [TPN-0095042] | 21 ± 9.3 ^c µM | 3.7 ± 0.62 µM | – | – | – | – | > 10 µM | > 10 µM | 19 ± 1.0 ^b µM | 26 ± 3.0 ^b µM | – | – | – | – | –
COc1ccc(C(=O)c2sc(NCc3ccccc3)nc2N)cc1 [TPN-0095041] | 13 ± 5.5 ^c µM | 3.6 ± 0.5 µM | – | – | – | – | 14 ± 1 µM | > 20 µM | 24 ± 0.5 ^b µM | 52 ± 5.5 ^b µM | – | – | – | – | –
O=C(c1ccc(Cl)c(Cl)c1)N1CCN(c2ccc([N+](=O)[O-])c3cccnc23)CC1 [TPN-0095034] | >100 ^d µM | 8.4 ± 2.3 µM | – | – | – | – | > 20 µM | > 20 µM | >100 ^c µM | >100 ^c µM | – | – | – | – | –
Cc1sc(NC(=O)c2ccc(OC(C)C)cc2)c(C(N)=O)c1C [TPN-0073559] | 50 ± 24 ^d µM | – | – | – | – | – | > 20 µM | > 20 µM | 41 ± 11 ^c µM | 49 ± 8.5 ^c µM | 50 ± 24 ^d µM | > 20 µM | 41 ± 11 µM | 49 ± 8.5 µM | –
NNC(=O)c1ccncc1 [INH, isoniazid, reference compound] | – | 0.23 ± 0.08 µM | – | – | – | – | – | – | – | – | – | – | – | – | –
COc1ccc(C2Oc3ccc(Cl)cc3C3=C2C(c2ccc(OC)cc2)n2ncnc2N3)cc1 (centres unmarked) [TPN-0095029] | >50 ^b µM | > 50 µM | – | – | – | – | > 10 µM | > 10 µM | >50 ^b µM | >50 ^b µM | – | – | – | – | –
Cc1ccc(Nc2nc(-c3ccc(Cl)cc3)cs2)cc1Cl [TPN-0095032] | 9.9 ± 0.98 ^c µM | 3.5 ± 0.83 µM | – | – | – | – | > 20 µM | > 20 µM | 19 ± 0.5 ^b µM | 23 ± 1.5 ^b µM | – | – | – | – | –
O=C(CN(C1=NCCCS1)c1ccccc1)c1ccc(Cl)c(Cl)c1 [TPN-0095036] | 27 ± 2.8 ^c µM | 3.5 ± 0.97 µM | – | – | – | – | > 20 µM | > 20 µM | 20 ± 0.47 ^c µM | 21 ± 3.4 ^c µM | – | – | – | – | –
COc1c(Cl)ccc(Cl)c1C(=O)Nc1sc2c(c1C(N)=O)CCCC2 [TPN-0073571] | 15 ± 5 µM and 15 ± 5.0 ^b µM | – | – | – | – | – | – | – | 26 ± 5.0 ^b µM | >100 ^b µM | – | – | 26 ± 5 µM | > 100 µM | ~4
O=C(c1c(F)cccc1F)N1CCN(c2cc(N3CCCCCC3)c(F)cc2[N+](=O)[O-])CC1 [TPN-0095035] | >50 ^c µM | 1 ± 0.02 µM | – | – | – | – | 9.6 ± 0.1 µM | > 10 µM | 21 ± 2.0 ^b µM | 27 ± 0 ^b µM | – | – | – | – | –
CCOC(=O)c1nnn(-c2nc(N3CCCC3)nc(N3CCCC3)n2)c1-c1ccccc1 [TPN-0095040] | 31 ± 18 ^b µM | – | – | – | – | – | > 10 µM | > 10 µM | >50 ^c µM | >50 ^c µM | – | – | – | – | –
Clc1ccc(C2C=C(c3ccc(Br)cc3)Nc3ncnn32)cc1 (centres unmarked) [TPN-0095026] | 19 ± 12 ^b µM | – | – | – | – | – | 19 ± 1 µM | > 20 µM | 18 ± 5 ^b µM | 19 ± 3.5 ^b µM | – | – | – | – | –
CCOC(=O)c1sc(NC(=O)Cc2c(F)cccc2Cl)nc1C [TPN-0089695] | 45 ± 17 ^b µM | 4.7 ± 1.2 µM | – | – | – | – | 19 µM | > 20 µM | >100 ^e µM | >100 ^d µM | – | – | – | – | –
Cc1ccc(Nc2nc(C(N)=O)c(N)s2)cc1 [TPN-0095028] | 54 ± 20 ^b µM | 4.4 ± 1.3 µM | – | – | – | – | > 20 µM | > 20 µM | 62 ± 6.2 ^c µM | 54 ± 9.4 ^c µM | – | – | – | – | –
